Data set [1] is described as follows: Bile resistance in artificial bile. The format is physicochemical. Particulars: 0.3% oxgall, 37° C., 24 hours. How it is done: Artificial bile was prepared by adding 3% of a 10% Bacto oxgall (Becton, Dickinson and Company) solution filtered through a 0.22-μm membrane to sterilized MRS broth to give a final oxgall concentration of 0.3%. […] 1 mL of the sample was taken, diluted decimally with 9 mL of saline, smeared on LAB Petrifilm, and incubated at 37° C. for 1-2 days to determine the number of live bacteria (Table 13). Bile resistance was calculated using the following equation. A sample incubated in MRS broth without addition of oxgall was used as a control group.

The test system of the next data set is Caco-2 cells. Description: Ability of intestinal adherence. The class given is cell-based, human. Particulars: MOI 200, 2 hours, listed as LGG. How it is done: Caco-2 cells (human colorectal adenocarcinoma cells, HTB-37™), which are enterocyte-like cells, purchased from the ATCC were cultured in DMEM medium supplemented with 10% (v/v) FBS (Cornig) and 1% (v/v) P/S at 37° C. under 5% CO2 in an incubator (Thermo Fisher Scientific, Waltham, MA, USA). 0.25% trypsin-EDTA (GIBCO) was used to detach the cells from a culture flask.
500 μL of the Caco-2 cells were seeded in a 24-well plate at a density of 5×10^5 cells/well and cultured for 3 days at 37° C. and 5% CO2. The 24-well plate in which the Caco-2 cells were cultured was washed twice with 500 μL of DMEM medium supplemented with 10% FBS. After treating with Lactobacilli at a concentration of MOI 200, the cells were incubated at 37° C. and 5% CO2 for 2 hours. After the incubation, each well was washed four times with 500 μL of DPBS to remove the unattached strain. 200 μL of 0.25% trypsin-EDTA was dispensed into each well and incubated for 5 minutes at 37° C. and 5% CO2. The detached Caco-2 cells and strain were collected in a 1.5-mL tube together with […] of DPBS and centrifuged at 13,000 rpm for 1 minute to harvest a cell pellet, which was washed twice with 1 mL of DPBS. […] After decimal dilution, followed by smearing on Petrifilm and incubation at 37° C. for 24 hours, the number of live bacteria was determined. The ability of intestinal adhesion was calculated by the following equation.

A short description of data set [2]: DPPH radical scavenging assay. The class given is biochemical. The following applies: culture supernatant; relative to 2 mM ascorbic acid. The method, then:
Louis, MO, USA) radical scavenging assay. […] 0.1 mM DPPH diluted in methanol was used in the experiment. […] The reaction mixture was centrifuged at 13,000 rpm for 1 minute. 200 μL of the supernatant was dispensed into a 96-well plate, and absorbance was measured at 517 nm using a microplate reader (Epoch microplate reader, Biotek Instruments, Inc., Winooski, VT, USA). DPPH radical scavenging activity was calculated using the following equation and expressed as a relative value to the DPPH radical scavenging activity of the positive control group, 2 mM ascorbic acid. DPPH Radical Scavenging Activity (%)=(1-(Absorbance of Sample/Absorbance of Control Group))×100

Data set [3] in a line: Acid resistance in artificial gastric fluid. The format is physicochemical. Particulars: pH 2.5, 2 h. How it is done: Artificial gastric fluid was prepared by adjusting the pH of 100 mM glycine-HCl buffer to 2.5. After inoculating Lactobacillus seed culture incubated at 37° C. for 20 hours to 1% (v/v) in 4 mL of MRS broth, the culture was incubated at 37° C. for 16 hours. The culture was centrifuged at 13000 rpm for 1 minute and the obtained cell precipitate was washed twice with 0.88% (w/v) NaCl (sterile physiological saline). The washed pellet was resuspended in 4 mL of the artificial gastric fluid and incubated at 37° C. After 2 hours of incubation, 1 mL of the sample was taken and centrifuged at 13000 rpm for 1 minute to obtain a cell pellet, which was washed three times with sterile physiological saline and resuspended in 1 mL of sterile physiological saline. After decimally diluting with 9 mL saline, followed by smearing on LAB Petrifilm, the sample was incubated at 37° C. for 1-2 days and the live bacteria were counted (Table 12). Acid resistance was calculated using the following equation. The sample at 0 hour of incubation was used as a control group. [formula]

In another data set the test system is RAW 264.7 cells. Kind of data set: NO production by RAW 264.7 macrophages (Griess reagent). The class given is cell-based, mouse. The following applies: MOI 100, 24 hours, LPS 1 μg/mL as 100%. How it is done: RAW 264.7 cells (KCLB40071), which are mouse macrophages, were purchased from the Korean Cell Line Bank. They were inoculated to DMEM (high-glucose Dulbecco's modified Eagle's medium; GIBCO, Grand Island, NY, USA) containing 10% (v/v) fetal bovine serum (FBS, GIBCO) and 1% (v/v) penicillin-streptomycin (P/S, GIBCO), cultured at 37° C. in a 5% CO2 incubator (Thermo Fisher Scientific, Waltham, MA, USA), and then detached using a cell scraper (SPL, Pocheon, Korea).
Cell precipitates were harvested by centrifugation at 10,000 rpm for 5 minutes at 4° C. for 5 times. Afterward, they were washed three times with DPBS (Dulbecco's phosphate buffered saline; Welgene, Gyeongsan, Korea). […]
NO production by RAW 264.7 macrophages was measured using a Griess reagent. […] 100 µL of the culture was added to a 96-well plate and, after adding 100 μL of a Griess reagent A and a Griess reagent B of equal amounts, reaction was conducted for 15 minutes in the dark, and absorbance was measured at 540 nm with a microplate reader. A standard curve for NO production versus absorbance was constructed using a sample of 250 µM NaNO2 diluted 2-fold with DMEM to […], and NO concentration was calculated from the measured absorbance value.
For orientation: The Griess reaction detects nitrite, a stable product of nitric oxide.

A short description of data set [4]: Number of live bacteria and pH of coconut fermented milk. The following applies: coconut milk fermented at 37° C. for 16 hours; listed as LGG. The method, then: Then, cells were harvested by centrifuging the Lactobacillus culture (13,000 rpm, 1 minute, 4° C.). The cell precipitate was washed 3 times with 0.85% (w/v) NaCl (sterile physiological saline) and then suspended in 1 mL of sterile physiological saline (The concentration of the suspension was 1×10^8 CFU/mL). (2) 1% (v/v) of the suspended strain was inoculated to 3 mL of coconut milk with a solid content of 8 wt %, and coconut fermented milk was prepared by fermenting at 37° C. for 16 hours. After measuring the pH of the coconut fermented milk prepared in Example 11-1, it was decimally diluted with sterile physiological saline and the number of live bacteria was counted on a […] lactic acid bacteria count plate (3M Company, St. Paul, MN, USA) after culturing for 1 to 2 days.

A short description of data set [5]: Pancreatic juice resistance in artificial pancreatic juice. The format is physicochemical. Particulars: 0.5% pancreatin, listed as LGG. How it is done: Artificial pancreatic juice was prepared by adding 5% of a 10% pancreatin solution (0.85% NaCl, pH 8.0) filtered through a 0.22-μm membrane to sterilized MRS broth to a final pancreatin concentration of 0.5%. A Lactobacillus seed culture obtained by incubating at 37° C. for 20 hours after inoculation to MRS broth was added to 5 mL of the artificial pancreatic juice to 1% (v/v) and incubated at 37° C. […] Pancreatic juice resistance was calculated using the following equation. A sample at 0 hour of incubation was used as a control group. [formula]

The values below come from patent publication US20250134938A1 (priority 2023, published 2025).

Where “and” joins values, the source holds several entries; their conditions need not be identical. Equal values may be shown once.

With Lactobacillus rhamnosus GG, the “Bile resistance (%)” value in data set [1] was determined as 63.6 ± 9.3%. The “Ability of intestinal adherence (%)” value in the data set with Caco-2 cells was 75.5% and 75.5 ± 9.3%. Further, the “DPPH radical scavenging activity (%)” value in data set [2] is on record as 97.2%. For the same substance, the results for the “Acid resistance (%) Average” value in data set [3] and in data set [3] (listed as LGG) were 83.3% and 83.3 ± 2.3%, respectively. The “Acid resistance (%)” value in data set [3] (single replicate, listed as LGG) is 81.2% and 85.8% and 83.0%. The “NO production (% of positive control group)” value with RAW 264.7 cells amounted to 18.5 ± 3.2%; in the data set on RAW 264.7 cells (listed as LGG), 18.47%. In addition, in data set [4], the pH was 3.57 and 3.57 ± 0.06. In addition, the “live bacteria 0 h (CFU/mL)” value in data set [5] (0 h (control)) was 1.30 × 10^9 CFU/mL and 1.73 × 10^9 CFU/mL and 1.12 × 10^9 CFU/mL. Besides, in data set [5] (37° C., 2 h), the “live bacteria 2 h (CFU/mL)” value is 3.14 × 10^9 CFU/mL and 3.87 × 10^9 CFU/mL and 2.74 × 10^9 CFU/mL. The “Pancreatic juice resistance (%) Average” value in data set [5] (average) was 104.1% and 104.1 ± 0.3%. Also, in data set [5] (single replicate), the “Pancreatic juice resistance (%)” value is 104.2% and 103.8% and 104.3%.
